Where “and” joins values, the source holds several entries; their conditions need not be identical. Equal entries are not always repeated. Where two headings read alike, the source gives them in different places.
Columns and labels:
[1] = UV/Vis absorption spectra; assay type: physicochemical; conditions: room temperature; for λmax (nm) ε (M^−1 · cm^−1): air-saturated CH2Cl2 or CH2Cl2/MeOH (1:1), 50 μM, ε in brackets, sh = shoulder
Procedure: UV/Vis absorption spectra were recorded at RT on solutions contained in quartz cuvettes (optical pathlength 1 cm, Hellma®) with a PerkinElmer® UV/VIS/NIR spectrophotometer Lambda 950 and a PerkinElmer® detector UV/VIS/NIR Accessory 2D Detector Module.

[2] = test system: MC3T3 osteoblast cells (non-tumor); test: Cell viability assay (MTT), dark and blue light; assay type: cell-based, Murine
Summary of the method: (§1)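 Cells were either kept dark for the full 72 h with complex or given 10 min irradiation after 8 h dark pre-incubation, then held dark to 72 h. DMSO fixed at 0.1% (v/v); MTT formazan measured at 570 nm; ≥3 independent triplicate experiments.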

[3] = test system: NIH-3T3 fibroblast cells (non-tumor); test: Cell viability assay (MTT), dark and blue light; assay type: cell-based, Murine; conditions: for Photosensitizing index (PI) NIH-3T3: dark vs blue light 458 nm
Summary of the method: as §1

[4] = test system: MiaPaCa2 pancreas cancer cells; test: Cell viability assay (MTT), dark and blue light; assay type: cell-based, Human
Procedure: (§2) Cells were grown in humidified incubators at 37° C. in 5% CO2. Murine MC3T3 osteoblast and NIH-3T3 fibroblast cells-used as non-tumor cell models-were cultured in a-MEM medium and DMEM medium supplemented with 10% fetal bovine serum (FBS) and 1% Penicillin/Streptomycin (P/S) antibiotics, respectively. Human T24 bladder, MGHU3 bladder, Scaber bladder, A549 lung, MCF7 breast, MiaPaCa2 pancreas cancer cells were cultured in DMEM medium supplemented with 10% FBS and 1% P/S antibiotics. […] Human Hela cervix and HepG2 liver cancer cells were cultured EMEM medium supplemented with 10% FBS and 1% P/S antibiotics.
(§3) MTT reagent (3-(4,5-dimethylthiazol-2-yl)-2,5-diphenyltetrazolium bromide) was used to determine cell death as originally described by Mosmann. Briefly, cells were seeded from 5,000 to 10,000 cells/well in 24-well plates (1 mL) depending on the cell type and allowed to attach overnight. The complexes were prepared in DMSO. The concentration of the complexes was calculated based on the elemental composition of the complexes determined by the elemental analyses. All cell viability experiments were carried out with a fixed concentration of 0.1% (v/v) DMSO. After 72 h of treatment, cells were incubated at 37° C. and 5% CO2 with 25 μL of MTT solution (5 mg/ml; Sigma-Aldrich) in 24-well plates for 3 to 4 h. After solubilization with 500 μL of DMSO, formazan was quantified spectrophotometrically with a microplate reader at 570 nm absorbance (ClarioSTAR, BMG LabTech). […] All the results were calculated from data obtained in at least three independent experiments performed in triplicate.
(§4) Two sets of experiments were conducted in parallel for each complex to be studied:
(§5) 1. The cells were incubated with the different complexes (in the dark) for 72 h.
(§6) 2. The cells were incubated for 8 h with the different complexes (in the dark), then irradiated for 10 min, followed by an incubation in the dark up to 72 h.

T24 bladder cancer cells = test: Cell viability assay (MTT), dark and blue light; assay type: cell-based, Human
Procedure: as §2, §3, §4, §5, §6

A549 lung cancer cells = test: Cell viability assay (MTT), dark and blue light; assay type: cell-based, Human
Procedure: as §2, §3, §4, §5, §6

[5] = test system: ASPC-1 pancreas cancer cells; test: Cell viability assay (MTT), dark and blue light; assay type: cell-based, Human
Procedure: as §2, §3, §4, §5, §6

[6] = Lipophilicity: octanol-water partition coefficient, shake-flask method
Summary of the method: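 Octanol and water mutually pre-saturated for 24 h; compound ([…] stock in aqueous phase) partitioned against equal volume n-octanol, mixed 15 min, phases separated by centrifugation.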

[7] = test system: cancer cells (all tumor cell lines tested); test: Cell viability assay (MTT), summary over the cancer cell lines tested; assay type: cell-based, Human
Procedure: as §2, §3, §4, §5, §6

[8] = test system: PC-3 prostate cancer cells (PSMA-negative); test: Cell viability assay (MTT), dark and blue light; assay type: cell-based, Human; conditions: for SI (vs NIH-3T3) PC-3 Blue: blue light 458 nm
Summary of the method: (§7)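 Dark versus photoactivated cytotoxicity is compared by MTT in RPMI-grown cells, with 72 h total compound exposure at 0.1% DMSO. Blue light (458 nm) is given for 10 min after an 8 h incubation; data come from at least three independent triplicate experiments.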

[9] = test system: C4-2B prostate cancer cells (PSMA-positive); test: Cell viability assay (MTT), dark and blue light; assay type: cell-based, Human
Summary of the method: as §7

[10] = Luminescence emission spectra and quantum yield; assay type: physicochemical; conditions: for λem: CH2Cl2, room temperature, λexc 365 nm or 470 nm; for ΦP emission phosphorescence quantum yield: room temperature, reference POPOP in hexane or rhodamine B in ethanol
Summary of the method: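 Relative luminescence quantum yields (Demas–Crosby) were derived from integrated emission areas of sample versus reference standard, with solvent refractive-index correction, on RT solutions. Emission spectra, fluorescence and phosphorescence, were taken for the complexes in CH2Cl2 at room temperature.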

[11] = Emission lifetime measurement; assay type: physicochemical
Summary of the method: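 Time-correlated single-photon counting with 0.5 ns resolution, using D2-lamp or 405 nm pulsed-diode-laser excitation, gave the lifetimes; quoted uncertainty is 5%.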

[12] = 8 h in the dark, blue light 458 nm 10 min, then dark up to 72 h, read-out: GI50 NIH-3T3 Blue
[13] = in the dark, 72 h, read-out: GI50 NIH-3T3 Dark
[14] = 8 h in the dark, blue light 458 nm 10 min, then dark up to 72 h, read-out: GI50 PC-3 Blue
[15] = PC3, blue light, read-out: GI50
[16] = in the dark, 72 h, read-out: GI50 PC-3 Dark
[17] = NIH-3T3, blue light, read-out: GI50

Structure (SMILES): CC(C)=CCC/C(C)=C/CC/C(C)=C/CSc1ccccc1C(=O)NCCCn1cc[n+]2[c]1[Ir-3]13([c]4ccccc4-c4ccc5ccccc5[n+]41)([c]1ccccc1-c1ccc4ccccc4[n+]13)[n+]1ccccc1-2.F[P-](F)(F)(F)(F)F [II-g]
- λmax (nm) ε (M^−1 · cm^−1) [1]: 333 (20560), 438 (4735) nm (M^−1 · cm^−1)
- GI50 ([2]; 8 h in the dark, blue light 458 nm 10 min, then dark up to 72 h, read-out: GI50 MC3T3 Blue): 5.9 µM
- Photosensitizing index (PI) MC3T3 ([2]; dark vs blue light 458 nm): 1.0
- GI50 ([2]; in the dark, 72 h, read-out: GI50 MC3T3 Dark): 5.8 µM
- GI50 [3, 12]: 5.1 µM
- Photosensitizing index (PI) NIH-3T3 [3]: 0.8
- GI50 [3, 13]: 4.3 µM
- GI50 ([4]; 8 h in the dark, blue light 458 nm 10 min, then dark up to 72 h, read-out: GI50 MiaPaCa2 Blue): 0.25 µM
- SI (vs MC3T3) MiaPaCa2 Blue ([4]; blue light 458 nm): 24.0
- SI (vs NIH-3T3) MiaPaCa2 Blue ([4]; blue light 458 nm): 20.7
- SI (vs MC3T3) MiaPaCa2 Dark ([4]; dark): 14.4
- SI (vs NIH-3T3) MiaPaCa2 Dark ([4]; dark): 10.7
- Photosensitizing index (PI) MiaPaCa2 ([4]; dark vs blue light 458 nm): 1.6
- GI50 ([4]; in the dark, 72 h, read-out: GI50 MiaPaCa2 Dark): 0.4 µM
- GI50 (T24 bladder cancer cells; 8 h in the dark, blue light 458 nm 10 min, then dark up to 72 h, read-out: GI50 T24 Blue): 0.64 µM and 0.65 µM
- SI (vs MC3T3) T24 Blue (T24 bladder cancer cells; blue light 458 nm): 9.2
- SI (vs NIH-3T3) T24 Blue (T24 bladder cancer cells; blue light 458 nm): 8.0
- SI (vs MC3T3) T24 Dark (T24 bladder cancer cells; dark): 12.3
- SI (vs NIH-3T3) T24 Dark (T24 bladder cancer cells; dark): 9.1
- Photosensitizing index (PI) T24 (T24 bladder cancer cells; dark vs blue light 458 nm): 0.7
- GI50 (T24 bladder cancer cells; in the dark, 72 h, read-out: GI50 T24 Dark): 0.47 µM
- GI50 (A549 lung cancer cells; 8 h in the dark, blue light 458 nm 10 min, then dark up to 72 h, read-out: GI50 A549 Blue): 0.39 µM
- SI (vs MC3T3) A549 Blue (A549 lung cancer cells; blue light 458 nm): 15.2
- SI (vs NIH-3T3) A549 Blue (A549 lung cancer cells; blue light 458 nm): 13.2
- SI (vs MC3T3) A549 Dark (A549 lung cancer cells; dark): 12.9
- SI (vs NIH-3T3) A549 Dark (A549 lung cancer cells; dark): 9.6
- Photosensitizing index (PI) A549 (A549 lung cancer cells; dark vs blue light 458 nm): 1.2
- GI50 (A549 lung cancer cells; in the dark, 72 h, read-out: GI50 A549 Dark): 0.45 µM
- GI50 ([5]; 8 h in the dark, blue light 458 nm 10 min, then dark up to 72 h, read-out: GI50 ASPC-1 Blue): 0.47 µM
- SI (vs MC3T3) ASPC-1 Blue ([5]; blue light 458 nm): 12.6
- SI (vs NIH-3T3) ASPC-1 Blue ([5]; blue light 458 nm): 10.9
- SI (vs MC3T3) ASPC-1 Dark ([5]; dark): 7.8
- SI (vs NIH-3T3) ASPC-1 Dark ([5]; dark): 5.8
- Photosensitizing index (PI) ASPC-1 ([5]; dark vs blue light 458 nm): 1.6
- GI50 ([5]; in the dark, 72 h, read-out: GI50 ASPC-1 Dark): 0.74 µM
- Log P [6]: 1.95 ± 0.05
- selectivity for cancer cells over non-tumor cells, in words [7]: highest selectivity toward cancer cells compared to non-tumor cells
- SI values, mean over cancer cells, dark ([7]; dark): 10.2 fold
- SI values, median over cancer cells, dark ([7]; dark): 10.3 fold

Structure (SMILES): COC(=O)c1cccc2[c]1[Ir-3]13([c]4c(C(=O)OC)cccc4-c4cccc[n+]41)([c]1n(CCC(=O)NCCCC[C@H](NC(=O)N[C@@H](CCC(=O)O)C(=O)O)C(=O)O)cc[n+]1-c1cccc[n+]13)[n+]1ccccc1-2.F[P-](F)(F)(F)(F)F [III-d]
- GI50 [8, 14]: > 100 µM
- GI50 [8, 15]: > 100 µM
- GI50 ([8]; PC3, dark, read-out: GI50): > 100 µM
- SI (vs NIH-3T3) PC-3 Blue [8]: 1.0
- Photosensitizing index (PI) PC-3 ([8]; dark vs blue light 458 nm): did not show any photosensitizing effect
- GI50 [8, 16]: > 100 µM
- Photosensitizing index (PI) C4-2b ([9]; dark vs blue light 458 nm): did not show any photosensitizing effect
- maximum absorption, lowest-lying bands in the visible region over 360 nm ([1]; CH2Cl2 or CH2Cl2/MeOH (1:1)): around 370 nm
- λmax (nm) ε (M^−1 · cm^−1) [1]: 370 (13650), 452 (sh) (565) nm (M^−1 · cm^−1)
- λem [10]: 498 nm
- ΦP emission phosphorescence quantum yield [10]: 2.1%
- GI50 [3, 12]: > 100 µM
- GI50 [3, 17]: > 100 µM
- GI50 ([3]; NIH-3T3, dark, read-out: GI50): > 100 µM
- Photosensitizing index (PI) NIH-3T3 [3]: did not show any photosensitizing effect
- GI50 [3, 13]: > 100 µM
- τ1 emission lifetime [11]: 219 ns
- Log P ([6]; n-octanol/water, shake-flask, mean of at least three determinations): −0.52 ± 0.01

Structure (SMILES): F[P-](F)(F)(F)(F)F.O=C(O)CC[C@H](NC(=O)N[C@@H](CCCCNC(=O)CCn1cc[n+]2[c]1[Ir-3]13([c]4ccccc4-c4ccc5ccccc5[n+]41)([c]1ccccc1-c1ccc4ccccc4[n+]13)[n+]1ccccc1-2)C(=O)O)C(=O)O [III-g]
- GI50 [8, 14]: 48.7 µM
- GI50 [8, 15]: 48.7 µM
- Photosensitizing index (PI) ([8]; PC3, dark vs blue light): >2.1
- GI50 ([8]; PC3, dark, read-out: GI50): > 100 µM
- SI (vs NIH-3T3) PC-3 Blue [8]: >2.1
- GI50 [8, 16]: ≥ 100 µM
- GI50 ([9]; 8 h in the dark, blue light 458 nm 10 min, then dark up to 72 h, read-out: GI50 C4-2b Blue): 17.6 µM
- GI50 ([9]; C4-2b, blue light, read-out: GI50): 17.6 µM
- Photosensitizing index (PI) ([9]; C4-2b, dark vs blue light): 1.2
- GI50 ([9]; C4-2b, dark, read-out: GI50): 21.3 µM
- SI (vs NIH-3T3) C4-2b Blue ([9]; blue light 458 nm): >5.7
- GI50 ([9]; in the dark, 72 h, read-out: GI50 C4-2b Dark): 21.3 µM
- λmax (nm) ε (M^−1 · cm^−1) [1]: 334 (18100), 436 (4280) nm (M^−1 · cm^−1)
- λem [10]: 593 nm
- ΦP emission phosphorescence quantum yield [10]: 0.1%
- GI50 [3, 12]: > 100 µM
- GI50 [3, 17]: > 100 µM
- GI50 ([3]; NIH-3T3, dark, read-out: GI50): > 100 µM
- GI50 [3, 13]: > 100 µM
- τ1 emission lifetime [11]: 191 ns
- Log P [6]: 0.33 ± 0.01

From patent publication US20260209260A1, “VECTORIZED NHC IRIDIUM(III) COMPLEXES AND USE THEREOF IN PHOTODYNAMIC THERAPY AND/OR DIAGNOSTIC” (CENTRE NATIONAL DE LA RECHERCHE SCIENTIFIQUE, priority 2022, published 2026)
